Measured values reported in paper PMC8762706, “Design of Coibamide A Mimetics with Improved Cellular Bioactivity” (ACS Medicinal Chemistry Letters, 2021).
Where a SMILES comes first, the peptide text is derived from it. Bridges are numbered along the chain shown (N, C = ends). [ ]: non-standard residue; d: D form. The star is where a group is joined. 1Nal = N[C@@H](Cc1cccc2ccccc12)C(=O)O; NMe2Val = CC(C)[C@@H](C(=O)*)N(C)C; NMeLys(Me) = CNCCCC[C@H](NC)C(=O)O; NMeF = CN[C@@H](Cc1ccccc1)C(=O)O; NMeI = CC[C@H](C)[C@H](NC)C(=O)O; NMeL = CN[C@@H](CC(C)C)C(=O)O; dHiv = CC(C)[C@@H](O)C(=O)O; NMeA = CN[C@@H](C)C(=O)O; dNMeA = CN[C@H](C)C(=O)O

Test system: A549 cells
Experiment: Growth inhibition assay (MTS) in A549 cells
Assay type: cell-based
Conditions: MTS assay
Method: Growth Inhibition AssayS3
A549 cells were cultured in Dulbecco’s modified Eagle’s medium (DMEM; Sigma) supplemented with 10% (v/v) fetal bovine serum at 37 °C in a 5% CO2-incubator. Growth inhibition assays using A549 cells were performed in 96-well plates (BD Falcon). A549 cells were seeded at 1000 cells/well in 90 μL of culture media, respectively, and were cultured for 24 h. Chemical compounds in DMSO were diluted 50-fold with the culture medium in advance. 30 μL of the chemical diluents were added.
The final volume of DMSO in the medium was equal to 0.5% (v/v). The cells under chemical treatment were incubated for a further 72 h. The wells in the plates were washed twice with the cultured medium without phenol-red. After 1-hour incubation with 100 μL of the medium, the cell culture in each well was supplemented with 20 μL of the MTS reagent (Promega), followed by incubation for additional 40 min. Absorbance at 490 nm of each well was measured using a Wallac 1420 ARVO SX multilabel counter (Perkin Elmer). Three experiments were performed per condition and the averages of inhibition rates in each condition were evaluated to determine IC50 values using the GraphPad Prism software.

SMILES | cytotoxicity / bioactivity in words
CC[C@H](C)[C@H]1C(=O)N[C@@H](C)C(=O)N(C)[C@@H](CC(C)C)C(=O)N(C)[C@@H](Cc2ccccc2)C(=O)N(C)CCCC[C@H](N(C)C(=O)[C@H](CC(C)C)N(C)C(=O)[C@H](C)N(C)C(=O)[C@H](OC(=O)[C@H](C(C)C)N(C)C)C(C)C)C(=O)N(C)[C@@H](C)C(=O)N1C [10n] (NMe2Val-[dHiv][NMeA][NMeL][NMeLys(Me)][NMeA][NMeI]A[NMeL][NMeF]; lactam 4-C) | loss of bioactivity

Same assay, conditions: read-out: IC50 (concentration for 50% growth inhibition of A549 cells), MTS assay, 72 h treatment, 0.5% DMSO, absorbance 490 nm, n = 3

SMILES | IC50 [µM]
CC[C@H](C)[C@H]1C(=O)N[C@@H](C)C(=O)N(C)[C@@H](CC(C)C)C(=O)N[C@@H](Cc2ccc(OC)cc2)C(=O)N(C)CCC[C@H](N(C)C(=O)[C@H](CC(C)C)N(C)C(=O)[C@H](C)N(C)C(=O)[C@H](OC(=O)[C@H](C(C)C)N(C)C)C(C)C)C(=O)N(C)[C@@H](C)C(=O)N1C [2c] | 9.6 ± 3.2
CC[C@H](C)[C@H]1C(=O)N[C@@H](C)C(=O)N(C)[C@@H](CC(C)C)C(=O)N[C@@H](Cc2ccc(OC)cc2)C(=O)N(C)CCCC[C@H](N(C)C(=O)[C@H](CC(C)C)N(C)C(=O)[C@H](C)NC(=O)[C@H](OC(=O)[C@H](C(C)C)N(C)C)C(C)C)C(=O)N(C)[C@@H](C)C(=O)N1C [8a] (NMe2Val-[dHiv]A[NMeL][NMeLys(Me)][NMeA][NMeI]A[NMeL]Y(Me); lactam 4-C) | 2.2 ± 0.6
CC[C@H](C)[C@H]1C(=O)N[C@@H](C)C(=O)N(C)[C@@H](CC(C)C)C(=O)N(C)[C@@H](Cc2ccccc2)C(=O)N(C)CCCC[C@H](N(C)C(=O)[C@H](CC(C)C)N(C)C(=O)[C@H](C)N(C)C(=O)[C@H](OC(=O)[C@H](C(C)C)N(C)C)C(C)C)C(=O)N(C)[C@@H](C)C(=O)N1C [10n] (NMe2Val-[dHiv][NMeA][NMeL][NMeLys(Me)][NMeA][NMeI]A[NMeL][NMeF]; lactam 4-C) | > 10
CC[C@H](C)[C@H]1C(=O)N[C@@H](C)C(=O)N(C)[C@@H](CC(C)C)C(=O)N[C@@H](Cc2ccc(OC)cc2)C(=O)N(C)CCC[C@@H](N(C)C(=O)[C@H](CC(C)C)N(C)C(=O)[C@H](C)N(C)C(=O)[C@H](OC(=O)[C@H](C(C)C)N(C)C)C(C)C)C(=O)N(C)[C@@H](C)C(=O)N1C [2d] | > 10
CC[C@H](C)[C@H]1C(=O)N[C@@H](C)C(=O)N(C)[C@@H](CC(C)C)C(=O)N[C@@H](Cc2cccc3ccccc23)C(=O)N(C)CCCC[C@H](N(C)C(=O)[C@H](CC(C)C)N(C)C(=O)[C@H](C)N(C)C(=O)[C@H](OC(=O)[C@H](C(C)C)N(C)C)C(C)C)C(=O)N(C)[C@@H](C)C(=O)N1C [10p] (NMe2Val-[dHiv][NMeA][NMeL][NMeLys(Me)][NMeA][NMeI]A[NMeL][1Nal]; lactam 4-C) | 4.8 ± 0.5
CC[C@H](C)[C@H]1C(=O)N[C@@H](C)C(=O)N(C)[C@@H](CC(C)C)C(=O)N[C@@H](Cc2ccc(OC)cc2)C(=O)N(C)CCCC[C@H](N(C)C(=O)[C@H](CC(C)C)N(C)C(=O)[C@H](C)N(C)C(=O)[C@H](OC(=O)[C@H](C(C)C)N(C)C)C(C)C)C(=O)N(C)[C@H](C)C(=O)N1C [9a] (NMe2Val-[dHiv][NMeA][NMeL][NMeLys(Me)][dNMeA][NMeI]A[NMeL]Y(Me); lactam 4-C) | > 10
